Assay results as given in patent publication US20070111258A1, “Compositions and methods for modulating the acute phase response” (priority 2005, published 2007).

Experiments:
[1] = system: human CREBH; assay: Cleavage of flag-tagged human CREBH stably expressed in H2.35 cells (Western blot, cell fractionation); assay type: cell-based; conditions: H2.35 cells stably expressing flag-tagged human CREBH; 8 hours; BFA 0.5 μg/ml, TNFα 20 ng/ml, IL6 40 ng/ml, DTT 5 mM, Tg 0.5 μM, Tm 5 μg/ml
Experimental: FIG. 3 depicts the effects of ER stress on CREBH: proteolytic cleavage of CREBH to release its N-terminal fragment that translocates into the nucleus. (A) Illustration of transmembrane domains and lumenal domains of SREBP, ATF6, Luman and CREBH in human (hs), mouse (mm). The conserved residues for S1P and S2P recognition are highlighted. (B) Cleavage of CREBH in H2.35 cells under different stimuli. H2.35 cells stably expressing flag-tagged human CREBH were treated with 0.5 μg/ml BFA, 20 ng/ml TNFα, 40 ng/ml IL6, 5 mM DTT, 0.5 μM Tg or 5 μg/ml Tm for 8 hours. Untransfected H2.35 cells (lane 1) and the H2.35 cells that stably express human CREBH (lane 2) were cultured under normal conditions as control. Total cell lysates were collected for Western blot analysis by using an anti-flag monoclonal antibody (upper panel). Levels of α-actin were determined for control of protein loading (lower panel). (C) Cleavage of CREBH in H2.35 cells under Tm treatment for various time periods. The H2.35 cells stably expressing flag-tagged CREBH were cultured in the absence or presence of Tm (5 μg/ml) for 4, 8 or 12 hours. Membrane fractions were isolated from the total cell lysates, and were subjected to Western blot analysis of CREBH and calnexin, respectively. Nuclear fractions were isolated from the same total cell lysates and subjected to Western blot analysis of CREBH and PARP, respectively. (D) Translocation of CREBH in COS7 cells. COS7 cells were co-transfected with a construct expressing flag-tagged full-length CREBH (CREBH-F) or CREBH-ΔC and a construct expressing KDEL-RFP, and were then cultured in the absence or presence of Tm (5 μg/ml) for 4 hours. Cells were then stained with FITC-conjugated anti-flag antibody and subjected to Zeiss Confocal Microscope analysis. Magnification: 40×10.
For analysis of expression and cleavage of CREBH protein, total cell lysates were prepared from H2.35 cells or COS7 cells using Nonidet P-40 lysis buffer (1% NP-40, 50 mM Tris-HCl at pH 7.5, 150 mM NaCl, 0.05% SDS) supplemented with protease inhibitors (Complete Mini from Roche Applied Science), 0.1 mM sodium vanadate, and 1 mM sodium fluoride. Membrane and nuclear fractions of cell lysates were isolated as previously described (Dignam et al., 1983). The total cell lysate, membrane and nuclear fractions were subjected to SDS-PAGE and then analyzed by Western blot using anti-flag monoclonal antibody or other antibodies. Immunoprecipitation and Western blot analyses of ATF6 and CREBH interaction in 293T cells expressing flag-tagged CREBH protein were performed by using anti-human ATF6 and anti-flag antibodies. Total cell lysates from 293T cells transfected with control vector or pFlag-CREBH-ΔC were immunoprecipitated with anti-human ATF6 polyclonal antibody and anti-flag antibody, respectively. The immunoprecipitated cell lysates were then subjected to Western blotting by using anti-flag antibody to detect CREBH protein and using anti-human ATF6 antibody to detect ATF6 protein, respectively. The same total cell lysates were subjected to Western blotting by using anti-flag antibody to detect expression of CREBH protein in the transfected cells. For detecting endogenous CREBH protein in the liver extracts, an anti-mouse CREBH polyclonal antibody was raised in rabbits against a purified mouse CREBH peptide composed of amino acids 92-109 [[…]]. The rabbit anti-human ATF6 polyclonal antibody was generated in the inventor's laboratory. The anti-mouse calnexin monoclonal antibody and the anti-mouse monoclonal PRAP antibody were purchased from Stressgen Biotechnologies (Victoria, BC, Canada) and BD Bioscience (Mountain View, Calif., USA), respectively.

[2] = system: CREBH mRNA; assay: CREBH mRNA induction in H2.35 cells (Northern blot, quantitative real-time RT-PCR); assay type: cell-based; conditions: murine H2.35 hepatoma cells; IL6 40 ng/ml, TNFα 20 ng/ml, IL1β 40 ng/ml, DTT 5 mM, Tg 0.5 μM, Tm 5 μg/ml, BFA 0.5 μg/ml; 4, 8, 12 hours
Experimental: FIG. 1 depicts the induction of expression of CREBH during fetal liver development and by proinflammatory cytokines. (A) Structural comparison of CREBH and ATF6. The domains are indicated by residue numbers of amino acids. (B) Northern blot analysis of CREBH mRNA levels in various tissues from mice. Tissue samples were collected from 3-month-old wild-type C57BL/6J mice. Levels of β-actin mRNA were determined for control of sample loading. (C) Expression profile of CREBH mRNA in fetal livers during embryogenesis. (D) Induction of CREBH mRNA in murine hepatoma cell line H2.35 under IL6 (40 ng/ml) stimulation for various time points. For panels A-D, experiments were performed at least 3 times and representative data are shown.
FIG. 2 depicts the analysis of gene expression in H2.35 cells. H2.35 cells were treated with 20 ng/ml TNFα, 40 ng/ml IL1β, 20 μg.ml LPS, 5 mM DTT, 0.5 μM Tg, 5 μg/ml Tm or 0.5 μg/ml BFA for 4, 8 and 12 hours, respectively. Levels of CREBH mRNA (A) and spliced XBP1 mRNA (B) in H2.35 were determined by quantitative real-time RT-PCR. Fold changes of mRNA induction were determined after normalization of the mRNA levels to internal control 18S ribosomal RNA levels. […] However, expression from the SAP or CRP promoter-reporter plasmids is sufficiently measurable in H2.35 cells so that it is possible to investigate transcriptional activation effects of CREBH on the CRP and SAP promoters by reporter assays in H2.35 cells. These reporter experiments are not possible in non-hepatocyte cell lines. However, for non-hepatocyte cell lines, such as wild-type and mutant CHO cells, CREBH cleavage and activation could be measured using the UPRE reporter assay. (C) Summary of stimuli that induce CREBH mRNA, NF-κB activation and the UPR in H2.35 and HepG2 cells. (D) Expression of BiP and GRP94 in H2.35 cells over-expressing CREBH or ATF6. H2.35 cells in a 35 mm collagen-coated plate were transfected with 1.5 μg empty DNA vector, vector expressing the nuclear form of CREBH (CREBH-N) or vector expressing nuclear form of ATF6 (ATF6 p50), respectively. Expression levels of BiP and GRP 94 were determined by Western blot analysis by using a murine and —BiP monoclonal antibody and a murine anti-GRP94 monoclonal antibody, respectively. The membranes were re-blotted with an anti-α-actin antibody for control of sample loading.
Northern blot analysis was performed according to standard procedures (Sambrook et al., 1989). ^32P-labeled probes were prepared using a random prime labeling system (Amersham Pharmacia, Piscataway, N.J., USA). A 210 bp mouse CREBH cDNA fragment, a 250 bp mouse CRP cDNA fragment and a 260 bp mouse SAP cDNA fragment were amplified from murine total RNA by reverse transcription-PCR system (Roche Applied Science), respectively, and were used as probes for Northern blot analyses. Total RNA (15 μg) per sample purified from cultured cells or murine tissues was used for Northern blot analysis. Quantitative real-time RT-PCR was performed as previously described (Back et al., 2005). Briefly, total cellular RNA prepared was reverse-transcribed to cDNA using a random primer (Applied Biosystems). The reaction mixture, containing SYBR Green PCR Master Mix (Applied Biosystems), was run in a 7900HT Fast Real-Time PCR System (Applied Biosystems). Real-time PCR primer sequences for quantification of murine XBP1 mRNA splicing are: the forward primer 5′-[…]-3′, and the reverse primer 5′-[…]-3′. Other primer sequences were designed by Primer Express (Applied Biosystems).

[3] = system: BiP, CHOP, EDEM, spliced XBP1, SAP and CRP mRNAs; assay: UPR and APR mRNA induction in mouse liver after injection (quantitative real-time RT-PCR); assay type: in vivo; conditions: 24 hours after injection; for fold increases in UPR mRNA levels relative to those observed after injection of Tm: liver; for levels of spliced XBP1 mRNA and mRNA encoding EDEM in the liver: wild-type mice
Experimental: Levels of spliced XBP1 mRNA were determined by quantitative real-time RT-PCR (lower panel). […] (B) Induction of CRP, SAP, BiP and spliced XBP1 mRNAs in mice injected with Tm. C57BU6J mice at 3-months of age were injected intraperitoneally with Tm (2 mg/kg body weight) in 150 mM dextrose solution. Mice were injected with the same volume of dextrose solution as a control. Liver tissues were collected from mice at 24 hours after injection for RNA isolation. (C-E) Induction of the BiP, CHOP, EDEM, spliced XBP1, SAP and CRP mRNAs in mice challenged with IL6, IL1β, LPS or Tm. Wild-type C57B1/6J mice at 3-months of age were intraperitoneally injected with recombinant murine IL6 (25 ng/gram body weight), recombinant murine IL1β (25 ng/gram body weight), LPS (3 μg/gram body weight) or Tm (2 μg/gram body weight). Mice were injected with the same volume of NaCL (for panels C and D) or dextrose (for panels E) solution as controls. At 24 hours after injection, liver samples were collected for isolating total RNA. Quantitative real-time RT-PCR was used to determine the mRNA levels. Fold changes of mRNA induction were determined after normalization of the mRNA levels to internal control 18S ribosomal RNA levels. Each bar denotes the mean±S.D., n=5 mice per injection.
Quantitative real-time RT-PCR was performed as previously described (Back et al., 2005). Briefly, total cellular RNA prepared was reverse-transcribed to cDNA using a random primer (Applied Biosystems). The reaction mixture, containing SYBR Green PCR Master Mix (Applied Biosystems), was run in a 7900HT Fast Real-Time PCR System (Applied Biosystems). Real-time PCR primer sequences for quantification of murine XBP1 mRNA splicing are: the forward primer 5′-[sequence]-3′, and the reverse primer 5′-[sequence]-3′. Other primer sequences were designed by Primer Express (Applied Biosystems).

Molecule: O[C@H](CS)[C@H](O)CS (racemic) [DTT, dithiothreitol]
- cleavage of CREBH to release a 50 kD N-terminal fragment [1]: significantly induced cleavage of CREBH
- induction of CREBH mRNA [2]: significantly induced

Molecule: C[C@H]1CCC/C=C/[C@@H]2C[C@H](O)C[C@H]2[C@H](O)/C=C/C(=O)O1 [BFA, Brefeldin A]
- cleavage of CREBH to release a 50 kD N-terminal fragment [1]: induced cleavage of CREBH
- induction of CREBH mRNA [2]: significantly induced

Molecule: C/C=C(/C)C(=O)O[C@H]1C(C)=C2[C@H]([C@@H]1OC(=O)CCCCCCC)[C@@](C)(OC(C)=O)C[C@H](OC(=O)CCC)[C@@]1(O)[C@H]2OC(=O)[C@@]1(C)O [Tg, thapsigargin]
- cleavage of CREBH to release a 50 kD N-terminal fragment [1]: significantly induced cleavage of CREBH
- induction of CREBH mRNA [2]: significantly induced

Molecule: tumor necrosis factor α [TNFα]
- cleavage of CREBH to release a 50 kD N-terminal fragment [1]: neither of them significantly induced CREBH cleavage
- induction of CREBH mRNA [2]: induced in a time-dependent manner

B1: IL1β: pro-inflammatory cytokine; recombinant murine IL1β in vivo (protein, UniProt P10749 118-269, looked up)
Interleukin-1 beta: VPIRQLHYRLRDEQQKSLVLSDPYELKALHLNGQNINQQVIFSMSFVQGEPSNDKIPVALGLKGKNLYLSCVMKDGTPTLQLESVDPKQYPKKKMEKRFVFNKIEVKSKVEFESAEFPNWYISTSQAEHKPVFLGNNSGQDIIDFTMESVSS
- induction of CREBH mRNA [2]: induced in a time-dependent manner
- fold increases in UPR mRNA levels relative to those observed after injection of Tm [3]: approximately 50 % of those observed after injection of Tm
- levels of spliced XBP1 mRNA and mRNA encoding EDEM in the liver [3]: also increased

B2: interleukin-6 (protein, UniProt P08505 25-211, looked up)
Interleukin-6: FPTSQVRRGDFTEDTTPNRPVYTTSQVGGLITHVLWEIVEMRKELCNGNSDCMNNDDALAENNLKLPEIQRNDGCYQTGYNQEICLLKISSGLLEYHSYLEYMKNNLKDNKKDKARVLQRDTETLIHIFNQEVKDLHKIVLPTPISNALLTDKLESQKEWLRTKTIQFILKSLEEFLKVTLRSTRQT
notes: pro-inflammatory cytokine; recombinant murine IL6 in vivo
- cleavage of CREBH to release a 50 kD N-terminal fragment [1]: neither of them significantly induced CREBH cleavage
- induction of CREBH mRNA [2]: induced in a time-dependent manner
- fold increases in UPR mRNA levels relative to those observed after injection of Tm [3]: approximately 50 % of those observed after injection of Tm
- levels of spliced XBP1 mRNA and mRNA encoding EDEM in the liver [3]: also increased
